From US20110098323A1, “INHIBITORS OF BACTERIAL BIOFILM FORMATION” (MICROBIOTIX, INC., priority 2009, published 2011) come the findings set out here.

Where two headings read alike, the source gives them in different places.

Experiment in all cases: MBIC/MIC secondary assay
Common to all, as to type: cell-based

Experiment [1] relates to Escherichia coli (ATCC 25922). Particulars: for MIC: Escherichia coli, ATCC25922. How it is done:
(§1) Assays for detecting and measuring bacterial biofilm formation are known in the art. An example of a biofilm formation assay useful in detecting and characterizing biofilm inhibitor compounds is described in Example 1, infra. Briefly, bacterial cells are inoculated into growth medium in individual wells of a 96-well assay plate in the presence or absence of a compound (known biofilm inhibitor or test compound). After incubation for a specified time, growth medium and non-biofilm bacterial cells are removed from each of the wells. The bacterial cells in any biofilms that are adhered to the surface of a well are fixed by addition of ethanol. The ethanol is removed, and the fixed biofilm bacteria cells are stained with crystal violet (CV). The intensity of CV staining is directly correlated with bacterial biofilm formation and is measured in the wells by reading the optical density at 600 nm (OD600). The difference in biofilm formation between untreated control and treated cultures provides an indication of relative biofilm inhibition activity (anti-biofilm activity). Use of different concentrations of an inhibitor in multiple and otherwise duplicate cultures permits determination of a compound's Minimal Biofilm Inhibitory Concentration (MBIC), which is defined herein as the lowest concentration of a compound that inhibits biofilm formation by at least 80% (i.e., ≧80%) compared to untreated control cultures. […]
(§2) A secondary assay provided a quantitative measure of both anti-biofilm activity and antibacterial activity in terms of the Minimal Biofilm Inhibitory Concentration (MBIC) and the Minimal Inhibitory Concentration (MIC), respectively. The MBIC and MIC are defined as the lowest compound concentrations that inhibit biofilm formation and bacterial growth, respectively, by at least 80% (i.e., ≧80%). The MBIC/MIC assay is formatted in a manner that is similar to the Microbroth dilution assays described by the Clinical and Laboratory Standards Institute (CLSI; formerly NCCLS) in protocol M7-A7. The growth conditions were optimized for biofilm growth in 96-well assay plates such that the resulting CV staining was within the linear range of detection. Therefore, the MBIC/MIC assay provided a stringent measure of anti-biofilm activity.
(§3) The assay was adapted for several biofilm-forming strains of S. epidermidis, S. aureus, Enterococcus faecalis, and Pseudomonas aeruginosa. Briefly, 96-well assay plates contained a two-fold dilution series for up to 8 compounds (one compound/row) and untreated controls (concentration range of 0.2 μM-100 μM). The assay plates were inoculated with the test bacterial species, e.g., S. epidermidis 18972 (0.5×TSB, 0.25% glucose) or S. aureus ATCC 35556 (0.5×TSB, 1% glucose). The inocula were prepared by diluting an overnight culture 1:100 in fresh media, which corresponds to approximately 5×10^6 cells/well. After inoculation, the assay plates were sealed with foil tape and incubated for 18 h-20 h at 37° C. The assay plates were processed, and the percent inhibition of growth (% INH-Growth) and percent inhibition of biofilm formation (% INH-Biofilm) were calculated as described above. […] Compounds with an MBIC≦10 μM and an MIC/MBIC ratio≧8 for either S. epidermidis or S. aureus were designated as validated hits.
(§4) Compounds were also tested for anti-biofilm activity against a strain of biofilm-forming, vancomycin-resistant Enterococcus faecalis strain (ATCC 51299), the Gram-negative biofilm-forming opportunistic pathogen Pseudomonas aeruginosa PAO1 ([…]), and a Gram-negative, biofilm-forming strain of Escherichia coli (ATCC 25922).

Experiment [2] relates to Pseudomonas aeruginosa PAO1. As to conditions: for MIC: Pseudomonas aeruginosa, PAO1. On the procedure: as §1, §2, §3, §4
Experiment [3] has as its system vancomycin-resistant Enterococcus faecalis strain (ATCC 51299). Particulars: for MIC: Enterococcus faecalis, ATCC51299. On the procedure:
as §1, §2, §3, §4

Usually MIC stands for the smallest concentration in the dilution series that meets the test's criterion for growth inhibition. In the case of `CCOc1cc(/C=C2\SC(=S)N(c3ccc(F)cc3)C2=O)ccc1O` [Compound 4, 3-(4-fluorophenyl)-5-(3-ethoxy-4-hydroxybenzylidene)-2-thioxothiazolidin-4-one], the figures for the MBIC entry in experiment [1] (E. coli strain 25922), in experiment [2] (P. aeruginosa strain PA01) and in experiment [3] (E. faecalis strain 51299) were “≧100 μM”, “≧100 μM” and 12.5 µM, respectively. Besides, the MIC in experiment [1], in experiment [2] and in experiment [3] was no less than 100 µM in each case.
Take `CCOc1cc(/C=C2\SC(=S)N(c3cccc(F)c3)C2=O)ccc1O` [Compound 8, 3-(3-fluorophenyl)-5-(3-ethoxy-4-hydroxybenzylidene)-2-thioxothiazolidin-4-one]: the MBIC entry was “≧100 μM” in experiment [1] (E. coli strain 25922), “≧100 μM” in experiment [2] (P. aeruginosa strain PA01) and 25 µM in experiment [3] (E. faecalis strain 51299). The MIC in experiment [1], in experiment [2] and in experiment [3] was no less than 100 µM throughout.
`C=CCOc1cc(/C=C2\SC(=S)N(c3ccc(F)cc3)C2=O)ccc1O` [Compound 29, 3-(4-fluorophenyl)-5-(3-allyloxy-4-hydroxybenzylidene)-2-thioxothiazolidin-4-one]: the figures for the MBIC entry in experiment [1] (E. coli strain 25922), in experiment [2] (P. aeruginosa strain PA01) and in experiment [3] (E. faecalis strain 51299) were “≧100 μM”, “≧100 μM” and 12.5 µM, respectively. The MIC in experiment [1] (E. coli strain 25922, read-out: MIC) is no less than 100 µM; in experiment [2] (P. aeruginosa strain PA01, read-out: MIC) it was no less than 100 µM; in experiment [3] (E. faecalis strain 51299, read-out: MIC), no less than 100 µM.
As to `CCOc1cc(/C=C2\SC(=S)N(c3cccc(C#N)c3)C2=O)ccc1O` [Compound 34, 3-(3-cyanophenyl)-5-(3-ethoxy-4-hydroxybenzylidene)-2-thioxothiazolidin-4-one], the results for the MBIC result in experiment [1] (E. coli strain 25922), in experiment [2] (P. aeruginosa strain PA01) and in experiment [3] (E. faecalis strain 51299) were “≧100 μM”, “≧100 μM” and 12.5 µM, respectively. Further, the MIC in experiment [1], in experiment [2] and in experiment [3] was no less than 100 µM in each case.
For the compound `CCOc1cc(/C=C2\SC(=S)N(c3cccnc3)C2=O)ccc1O` [Compound 36, 3-(pyridin-3-yl)-5-(3-ethoxy-4-hydroxybenzylidene)-2-thioxothiazolidin-4-one], the MBIC result in experiment [1] (E. coli strain 25922) was “≧100 μM”; in experiment [2] (P. aeruginosa strain PA01), “≧100 μM”; in experiment [3] (E. faecalis strain 51299), 12.5 µM. Also, the MIC in experiment [1], in experiment [2] and in experiment [3] was no less than 100 µM each time.
For `CCOc1cc(/C=C2\SC(=S)N(c3ccc(F)nc3)C2=O)ccc1O` [Compound 40, 3-(6-fluoropyridin-3-yl)-5-(3-ethoxy-4-hydroxybenzylidene)-2-thioxothiazolidin-4-one], the MBIC entry in experiment [1] (E. coli strain 25922) was “≧100 μM”; in experiment [2] (P. aeruginosa strain PA01), “≧100 μM”; in experiment [3] (E. faecalis strain 51299), 6.3 µM. Besides, the MIC in experiment [1], in experiment [2] and in experiment [3] was no less than 100 µM throughout.
